This is an account of results in patent publication US20180009797A1, “AZA-ARYL 1H-PYRAZOL-1-YL BENZENE SULFONAMIDES” (ChemoCentryx, Inc., priority 2016, published 2018).

The first experiment addresses T1, CCR(9) (Homo sapiens, UniProt P51686).
T1 construct: CCR(9)-expressing cells such as T cell line MOLT-4 cells; host or cells: MOLT-4 T cell line
T1 sequence (P51686 1-369): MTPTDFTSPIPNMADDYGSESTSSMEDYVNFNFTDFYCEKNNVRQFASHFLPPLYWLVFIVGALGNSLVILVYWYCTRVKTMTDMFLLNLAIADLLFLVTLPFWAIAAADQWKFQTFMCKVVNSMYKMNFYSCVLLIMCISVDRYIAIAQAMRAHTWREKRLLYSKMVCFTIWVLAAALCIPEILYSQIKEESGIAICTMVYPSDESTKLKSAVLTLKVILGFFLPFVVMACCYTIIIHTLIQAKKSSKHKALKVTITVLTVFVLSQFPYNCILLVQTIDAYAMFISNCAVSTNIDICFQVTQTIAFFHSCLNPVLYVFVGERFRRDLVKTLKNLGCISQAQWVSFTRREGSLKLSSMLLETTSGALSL
The experiment can be described thus: calcium mobilization assay (FLIPR, MOLT-4 cells, hTECK). It is filed as cell-based. Particulars: read-out: CCR(9) Ca^2+. On the procedure:
In calcium signaling assays used to determine the ability of a compound to interfere with binding between a chemokine receptor and a known chemokine ligand, chemokine receptor-expressing cells (CCR(9)-expressing cells such as T cell line MOLT-4 cells) are first incubated with a compound of interest, such as a potential chemokine antagonist, at increasing concentrations. The cell number can be from 10^5 to 5×10^6 cells per well in a 96-well microtiter plate. The concentration of the compound being tested may range from 0 to 100 μM. After a period of incubation (which can range from 5 to 60 minutes), the treated cells are placed in a Fluorometric Imaging Plate Reader (FLIPR®) (available from Molecular Devices Corp., Sunnyvale, Calif.) according to the manufacturer's instruction. The FLIPR® system is well known to those skilled in the art as a standard method of performing assays. The cells are then stimulated with an appropriate amount of the chemokine ligand (TECK for CCR(9)) at 5-100 nM final concentration, and the signal of intracellular calcium increase (also called calcium flux) is recorded. The efficacy of a compound as an inhibitor of binding between the chemokine and the ligand can be calculated as an IC50 (the concentration needed to cause 50% inhibition in signaling) or IC90 (at 90% inhibition).
(§1) MOLT-4 cells were obtained from the American Type Culture Collection (Manassas, Va.) and cultured in RPMI tissue culture medium supplemented with 10% fetal calf serum (FCS) in a humidified 5% CO2 incubator at 37° C. Recombinant human chemokine proteins TECK was obtained from R&D Systems (Minneapolis, Minn.). ChemoTX® chemotaxis microchambers were purchased from Neuro Probe (Gaithersburg, Md.). CyQUANT® cell proliferation kits were purchased from Molecular Probes (Eugene, Oreg.). Calcium indicator dye Fluo-4 AM was purchased from Molecular Devices (Mountain View, Calif.).
A cytoplasmic calcium mobilization assay was used to determine the efficacy of potential receptor antagonists at blocking the signals mediated through chemokine receptors, such as CCR(9). This assay was routinely performed using the Fluorescent Imaging Plate Reader (FLIPR, Molecular Devices). MOLT-4 cells were labeled with the fluorescent-indicator dye Fluo-4 (Molecular Devices) according to the manufacturer's directions. After labeling, the cells were collected by centrifugation (400×g for 5 min at room temperature) and resuspended in HBSS to a cell density of 2.5×10^6 cells/mL. Test compounds were prepared in 100% DMSO at 100× the final concentration; generally, a range of concentrations of each compound were tested, with final concentrations from 0.1 nM to 10,000 nM. Labeled cells (300 μL) were mixed with compound or an equal volume of DMSO (3 μL) in a 96-well plate; after thorough mixing, 50 μL of this cell/compound mixture was added to each of four wells of a 384-well FLIPR plate. The chemokine agonist (i.e., hTECK), prepared in HBSS at a 5× concentration of the previously determined EC^50 concentration, was added to each well and resulting changes in the fluorescent intensity, indicative of chemokine receptor-mediated signaling, were recorded on the FLIPR.
On the technique in general: A change in cytosolic calcium serves as a functional read-out for many receptors and channels.
With `CC(C)(C)c1ccc(S(=O)(=O)Nc2cc(C(F)(F)F)nn2-c2cccc3cccnc23)cc1`, the IC50 was more than 1 µM. On the same count and under the same terms, the same measure for `CC(C)(C)c1ccc(S(=O)(=O)Nc2cc(C(F)(F)F)nn2-c2ncnc3ccccc23)cc1`: less than 0.1 µM. Same read-out and setting: the same measure for `Cc1cc(NS(=O)(=O)c2ccc3c(c2)CCC3(C)C)n(-c2cccc3ncccc23)n1`: less than 0.1 µM; for `Cc1cc(NS(=O)(=O)c2ccc3c(c2)CC(C)(C)O3)n(-c2cccc3ncccc23)n1`: less than 0.1 µM; for `Cc1cc(NS(=O)(=O)c2ccc(C(C)(C)C)cc2)n(-c2ncnc3ccccc23)n1`: less than 0.1 µM.

On to `CCOc1ccc(S(=O)(=O)Nc2cc(C)nn2-c2cccc3ncccc23)cc1`, for which the IC50 is less than 0.1 µM. On the same count and under the same terms, the same measure for `Cc1cc(NS(=O)(=O)c2ccc(C(C)(C)C)cc2)n(-c2cccc3[nH]c(=O)ccc23)n1`: less than 0.1 µM.

As for `Cc1cc(NS(=O)(=O)c2ccc(C3(C#N)CC3)cc2)n(-c2cccc3ncccc23)n1`, the IC50 is less than 0.1 µM. Same read-out and setting: to `COc1ccc(S(=O)(=O)Nc2cc(C)nn2-c2cccc3ncccc23)cc1` belongs 0.1 to 1 µM; to `Cc1cc(NS(=O)(=O)c2ccc(C(C)(C)O)cc2)n(-c2cccc3ncccc23)n1`, less than 0.1 µM.

Consider `CCc1ccc(S(=O)(=O)Nc2cc(C)nn2-c2cccc3ncccc23)cc1`, for which the IC50 is less than 0.1 µM. On the same count and under the same terms, the same measure for `Cc1cc(NS(=O)(=O)c2ccc(C(C)(C)C)cc2)n(-c2ccc(N(C)C)c3ccccc23)n1`: less than 0.1 µM. `Cc1cc(NS(=O)(=O)c2ccc(C(C)(C)C)cc2)n(-c2c(C)ccc3ncccc23)n1`: the IC50 is less than 0.1 µM. The same measure, in the same setting: the same measure for `CC(C)c1cc(NS(=O)(=O)c2ccc(C(C)(C)C)cc2)n(-c2cccc3ncccc23)n1`: 0.1 to 1 µM; for `COc1ccc2ncccc2c1-n1nc(C)cc1NS(=O)(=O)c1ccc(C(C)(C)C)cc1`: less than 0.1 µM; for `Cc1cc(NS(=O)(=O)c2ccc(OC(C)(C)C)cc2)n(-c2cccc3ncccc23)n1`: 0.1 to 1 µM. Still for that read-out and setting: to `Cc1cc(NS(=O)(=O)c2ccc(N3CCOCC3)cc2)n(-c2cccc3ncccc23)n1` belongs less than 0.1 µM. The same measure, in the same setting: the same measure for `Cc1cc(NS(=O)(=O)c2ccc(C(C)(C)C)cc2)n(-c2cccc3cnncc23)n1`: more than 1 µM; for `Cc1cc(NS(=O)(=O)c2ccc(C(C)(C)C)cc2)n(-c2cccc3nccc(C)c23)n1`: less than 0.1 µM; for `CC(C)(C)c1ccc(S(=O)(=O)Nc2cc(CO)nn2-c2cccc3ncccc23)cc1`: less than 0.1 µM.

As to `Cc1cc(NS(=O)(=O)c2ccc(N3CCOCC3)c(F)c2)n(-c2cccc3ncccc23)n1`, the IC50 is less than 0.1 µM. The same measure, in the same setting: to `CC(C)(C)c1ccc(S(=O)(=O)Nc2c3c(nn2-c2cccc4cnccc24)CCC3)cc1` belongs less than 0.1 µM; to `CC(C)(C)c1ccc(S(=O)(=O)Nc2cc(C3CC3)nn2-c2cccc3ncccc23)cc1`, less than 0.1 µM. Same read-out and setting: to `Cc1cc(NS(=O)(=O)c2ccc(C(C)(C)C)cc2C)n(-c2cccc3ncccc23)n1` belongs 0.1 to 1 µM; to `COc1cc(C(C)(C)C)ccc1S(=O)(=O)Nc1cc(C)nn1-c1cccc2ncccc12`, less than 0.1 µM; to `Cc1cc(NS(=O)(=O)c2ccc(C(C)(C)C)cc2)n(-c2ncc(C)c3ccccc23)n1`, less than 0.1 µM. `Cc1cc(NS(=O)(=O)c2ccc(C(C)(C)C)cc2)n(-c2ccc3ccccc3n2)n1`: the IC50 lay within 0.1 to 1 µM.

Turning to `Cc1cc(NS(=O)(=O)c2ccc(C(C)(C)C)cc2)n(-c2ccc(Cl)c3nccc(C)c23)n1`, the IC50 is less than 0.1 µM. The same measure, in the same setting: the same measure for `Cc1cnc2cccc(-n3nc(C)cc3NS(=O)(=O)c3ccc(C(C)(C)C)cc3)c2c1`: 0.1 to 1 µM; for `Cc1cc(NS(=O)(=O)c2ccc(C(C)(C)C)cc2)n(-c2ccc3ncccc3c2)n1`: less than 0.1 µM; for `Cc1cc(NS(=O)(=O)c2ccc(C(C)(C)C)cc2)n(-c2ccnc3ccc(F)cc23)n1`: less than 0.1 µM. As for `Cc1nn(-c2cccc3ncccc23)c(NS(=O)(=O)c2ccc(C(C)(C)C)cc2)c1F`, the IC50 is less than 0.1 µM. Still for that read-out and setting: to `Cc1cc(NS(=O)(=O)c2ccc(C(C)(C)C)cc2)n(Cc2cccc3ncccc23)n1` belongs 0.1 to 1 µM. Same read-out and setting: to `Cc1cc(NS(=O)(=O)c2ccc(C(C)(C)C)cc2)n(Cc2cccc3cnccc23)n1` belongs less than 0.1 µM; to `Cc1cc(NS(=O)(=O)c2ccc(C(C)(C)C)cc2)n(-c2cc3ccccc3cn2)n1`, less than 0.1 µM. The same measure, in the same setting: the same measure for `CC(C)(C)c1ccc(S(=O)(=O)Nc2cc(CC#N)nn2-c2cccc3ncccc23)cc1`: less than 0.1 µM. Consider `Cc1cnc2c(Cl)ccc(-n3nc(C)cc3NS(=O)(=O)c3ccc(C(C)(C)C)cc3)c2c1`, for which the IC50 was less than 0.1 µM.

For `CC(C)Oc1ccc(S(=O)(=O)Nc2cc(C(C)(F)F)nn2-c2cccc3ncccc23)cc1`, the IC50 is less than 0.1 µM. Still for that read-out and setting: to `Cc1cc(NS(=O)(=O)c2ccc3c(c2)CCC(C)(C)O3)n(-c2cccc3ncccc23)n1` belongs less than 0.1 µM; to `CC(C)c1ccc(S(=O)(=O)Nc2cc(C(C)(F)F)nn2-c2cccc3ncccc23)cc1`, less than 0.1 µM. Still for that read-out and setting: the same measure for `CC(C)(C)c1ccc(S(=O)(=O)Nc2cc(C(N)=O)nn2-c2cccc3ncccc23)cc1`: 0.1 to 1 µM; for `CC(C)(C)c1ccc(S(=O)(=O)Nc2cc(C(C)(F)F)nn2-c2cccc3ncccc23)cc1`: less than 0.1 µM.

Another experiment deals with T1, CCR(9). Nature of the experiment: serum chemotaxis (serum migration) assay, MOLT-4 cells in human serum, TECK. The class given is cell-based. Conditions: read-out: A2. On the procedure: In vitro cell chemotaxis assays can be performed (but are not limited to this format) using the 96-well microchamber (called ChemoTX™). The ChemoTX™ system is well known to those skilled in the art as a type of chemotactic/cell migration instrument. In this assay, CCR(9)-expressing cells (such as MOLT-4) are first incubated with a compound of interest, such as a possible CCR(9) antagonist at increasing concentrations. Typically, fifty thousand cells per well are used, but the amount can range from 10^3-10^6 cells per well. The chemokine ligand (for example, CCR(9) ligand TECK, typically at 50 nM (but can range from 5-100 nM)), is placed at the lower chamber and the migration apparatus is assembled. Twenty microliters of test compound-treated cells are then placed onto the membrane. Migration is allowed to take place at 37° C. for a period of time, typically 2.5 hours for CCR(9). At the end of the incubation, the number of cells that migrated across the membrane into the lower chamber is then quantified. The efficacy of a compound as an inhibitor of chemokine-mediated cell migration can be calculated as an IC50 (the concentration needed to reduce cell migration by 50%) or IC90 (for 90% inhibition).
as §1
A serum chemotaxis assay was used to determine the efficacy of potential receptor antagonists at blocking the migration mediated through chemokine receptors, such as CCR(9). This assay was performed using the ChemoTX® microchamber system with a 5-μm pore-sized polycarbonate membrane. MOLT-4 cells were collected by centrifugation at 400×g at room temperature, then suspended at 50 million/ml in human serum, containing 50 mM HEPES (final pH of 7.2). The compound being tested or an equivalent volume of its solvent (DMSO) was then added to the cell/serum mixture at a final DMSO concentration of 0.125% (v/v), and this mixture was then incubated together at 37° C. for one hour. Separately, recombinant human TECK was diluted with chemotaxis buffer (HBSS+0.1% BSA), generally spanning a range from 0.1 nM to 500 nM, after which 29 μl of diluted chemokine was placed in the lower wells of the ChemoTX® plate. The 5-μm (pore size) polycarbonate membrane was placed onto the plate, and 20 μL of the cell/compound mixture was transferred onto each well of the membrane. The plates were incubated at 37° C. for 90 minutes, after which the polycarbonate membranes were removed and 5 μl of the DNA-intercalating agent CyQUANT (Invitrogen, Carlsbad, Calif.) was added to the lower wells. The amount of fluorescence, corresponding to the number of migrated cells, was measured using a Spectrafluor Plus plate reader (TECAN, San Jose, Calif.).
The A2 values were calculated from the following equation, comparing the efficacy of the test compound with that of the DMSO-only control at equi-active chemokine levels:
Log(A2)=log [drug(M)]−log [(A′/A)−1]
where A reflects the potency of the agonist in the absence of antagonist and […] reflects the potency of the agonist in the presence of antagonist at a given concentration of drug ([drug(M)]).
`Cc1cc(NS(=O)(=O)c2ccc(OC(C)C)cc2)n(-c2cccc3ncccc23)n1`: the EC50 was 0.501 to 2.5 µM. On the same count and under the same terms, the same measure for `Cc1cc(NS(=O)(=O)c2ccc(C(C)(C)C)c(F)c2)n(-c2cccc3nc(N)ccc23)n1`: less than 0.5 µM. Still for that read-out and setting: the same measure for `Cc1cc(NS(=O)(=O)c2ccc(C(C)(C)C)cc2)n(-c2ccc(F)c3ncccc23)n1`: 0.501 to 2.5 µM.
